From patent EP0255256A2, “Antibiotics produced by actinomadura parvosata” (SMITHKLINE BECKMAN CORPORATION, priority 1986, dated 1988)
In brackets after ≈: the same amount, converted by molar mass. Read-outs that look alike come from different tables or passages of the source.

Key:
[1] = test system: Staph. aureus 2620; assay: MIC, standard microtiter assay; format: cell-based; conditions: Staphylococcus aureus, Staph. aureus 2620, read-out: MIC
Description: (§1) The in vitro minimal inhibitory concentration (MIC) of the AAJ-271 complex and its factors, and vancomycin were determined for a number of microorganisms using the standard microtite'r assay procedures. The results are shown in the following tables, each of which represents a different production run of the complex.
(§2) The in vitro minimal inhibitory concentration (MIC) and the in vitro minimal bactericidal concentration (MBC) of the AAJ-271 aglycones, pseudo-aglycone and vancomycin were determined for a number of microorganisms using the standard microtiter assay procedures.

[2] = test system: Staph. aureus 675; assay: MIC, standard microtiter assay; format: cell-based; conditions: Staphylococcus aureus, Staph. aureus 675, read-out: MIC
Description: as §1, §2

[3] = test system: Staph. aureus HH127; assay: MIC, standard microtiter assay; format: cell-based; conditions: Staphylococcus aureus, Staph. aureus HH127, read-out: MIC
Description: as §1, §2

[4] = test system: Staph. epidermidis 2265; assay: MIC, standard microtiter assay; format: cell-based; conditions: Staphylococcus epidermidis, Staph. epidermidis 2265, read-out: MIC
Description: as §1, §2

[5] = test system: Staph. epidermidis 2479; assay: MIC, standard microtiter assay; format: cell-based; conditions: Staphylococcus epidermidis, Staph. epidermidis 2479, read-out: MIC
Description: as §1, §2

[6] = test system: Staph. haemolyticus 651; assay: MIC, standard microtiter assay; format: cell-based; conditions: Staphylococcus haemolyticus, Staph. haemolyticus 651, read-out: MIC
Description: as §1, §2

[7] = test system: Strep. faecalis 34358; assay: MIC, standard microtiter assay; format: cell-based; conditions: Enterococcus faecalis, Strep. faecalis 34358, read-out: MIC
Description: as §1, §2

[8] = test system: Strep. faecalis 657; assay: MIC, standard microtiter assay; format: cell-based; conditions: Enterococcus faecalis, Strep. faecalis 657, read-out: MIC
Description: as §1, §2

[9] = test system: Staph. aureus 2620; assay: MBC, standard assay procedures; format: cell-based; conditions: Staphylococcus aureus, Staph. aureus 2620, read-out: MBC
Description: (§3) The in vitro minimal bactericidal concentration (MBC) of the AAJ-271 C, C2 and C3 factors and vancomycin were determined for a number of microorganisms using standard assay procedures.
as §2

[10] = test system: Staph. aureus 675; assay: MBC, standard assay procedures; format: cell-based; conditions: Staphylococcus aureus, Staph. aureus 675, read-out: MBC
Description: as §3, §2

[11] = test system: Staph. aureus HH127; assay: MBC, standard assay procedures; format: cell-based; conditions: Staphylococcus aureus, Staph. aureus HH127, read-out: MBC
Description: as §3, §2

[12] = test system: Staph. epidermidis 2265; assay: MBC, standard assay procedures; format: cell-based; conditions: Staphylococcus epidermidis, Staph. epidermidis 2265, read-out: MBC
Description: as §3, §2

[13] = test system: Staph. epidermidis 2479; assay: MBC, standard assay procedures; format: cell-based; conditions: Staphylococcus epidermidis, Staph. epidermidis 2479, read-out: MBC
Description: as §3, §2

[14] = test system: Staph. haemolyticus 651; assay: MBC, standard assay procedures; format: cell-based; conditions: Staphylococcus haemolyticus, Staph. haemolyticus 651, read-out: MBC
Description: as §3, §2

[15] = test system: Strep. faecalis 34358; assay: MBC, standard assay procedures; format: cell-based; conditions: Enterococcus faecalis, Strep. faecalis 34358, read-out: MBC
Description: as §3, §2

[16] = test system: Strep. faecalis 657; assay: MBC, standard assay procedures; format: cell-based; conditions: Enterococcus faecalis, Strep. faecalis 657, read-out: MBC
Description: as §3, §2

[17] = test system: Staph. aureus 209P; assay: MIC, standard microtiter assay; format: cell-based; conditions: Staphylococcus aureus; Staph. aureus 209P; Table VIII; read-out: MIC
Description: as §1, §2

[18] = test system: Staph. aureus 910; assay: MIC, standard microtiter assay; format: cell-based; conditions: Staphylococcus aureus; Staph. aureus 910; Table VIII; read-out: MIC
Description: as §1, §2

[19] = test system: Staph. epidermidis 2256; assay: MIC, standard microtiter assay; format: cell-based; conditions: Staphylococcus epidermidis; Staph. epidermidis 2256; Table VIII; read-out: MIC
Description: as §1, §2

[20] = test system: Staph. epidermidis 2588; assay: MIC, standard microtiter assay; format: cell-based; conditions: Staphylococcus epidermidis; Staph. epidermidis 2588; Table VIII; read-out: MIC
Description: as §1, §2

[21] = test system: Staph. saprophyticus 2657; assay: MIC, standard microtiter assay; format: cell-based; conditions: Staphylococcus saprophyticus; Staph. saprophyticus 2657; Table VIII; read-out: MIC
Description: as §1, §2

[22] = test system: Strep. pyogenes (Group A); assay: MIC, standard microtiter assay; format: cell-based; conditions: Streptococcus pyogenes; Strep. pyogenes (Group A); Table VIII; read-out: MIC
Description: as §1, §2

[23] = test system: Staph. aureus 209P vancomycin resistant mutant; assay: MIC, standard microtiter assay; format: cell-based; conditions: Staphylococcus aureus, read-out: MIC in μg/ml
Description: as §2

[24] = test system: Staph. epidermidis 2261; assay: MIC, standard microtiter assay; format: cell-based; conditions: Staphylococcus epidermidis; Staph. epidermidis 2261; Table VIII; read-out: MIC
Description: as §2

[25] = test system: Staph. aureus 209P vancomycin resistant mutant; assay: MBC, standard assay procedures; format: cell-based; conditions: Staphylococcus aureus, read-out: MBC in μg/ml
Description: as §2

[26] = test system: Staph. aureus 209P; assay: MBC, standard assay procedures; format: cell-based; conditions: Staphylococcus aureus; Staph. aureus 209P; Table VIII; read-out: MBC
Description: as §2

[27] = test system: Staph. aureus 910; assay: MBC, standard assay procedures; format: cell-based; conditions: Staphylococcus aureus; Staph. aureus 910; Table VIII; read-out: MBC
Description: as §2

[28] = test system: Staph. epidermidis 2256; assay: MBC, standard assay procedures; format: cell-based; conditions: Staphylococcus epidermidis; Staph. epidermidis 2256; Table VIII; read-out: MBC
Description: as §2

[29] = test system: Staph. epidermidis 2261; assay: MBC, standard assay procedures; format: cell-based; conditions: Staphylococcus epidermidis; Staph. epidermidis 2261; Table VIII; read-out: MBC
Description: as §2

[30] = test system: Staph. epidermidis 2588; assay: MBC, standard assay procedures; format: cell-based; conditions: Staphylococcus epidermidis; Staph. epidermidis 2588; Table VIII; read-out: MBC
Description: as §2

[31] = test system: Staph. saprophyticus 2657; assay: MBC, standard assay procedures; format: cell-based; conditions: Staphylococcus saprophyticus; Staph. saprophyticus 2657; Table VIII; read-out: MBC
Description: as §2

[32] = test system: Strep. pyogenes (Group A); assay: MBC, standard assay procedures; format: cell-based; conditions: Streptococcus pyogenes; Strep. pyogenes (Group A); Table VIII; read-out: MBC
Description: as §2

[33] = test system: Staph. aureus HH127; assay: Mouse protection assay; format: in vivo; conditions: Staphylococcus aureus, 1 h; mice; intraperitoneal s.c. infection; Staph. aureus HH127, Dosage as No. of LD50's = 4; treatment one hour post infection; Table X; read-out: ED50
[34] = test system: Strep. faecalis 34358; assay: Mouse protection assay; format: in vivo; conditions: Enterococcus faecalis, 1 h; mice; intraperitoneal s.c. infection; Strep. faecalis 34358, Dosage as No. of LD50's = 3.5; treatment one hour post infection; Table X; read-out: ED50
[35] = test system: Staph. aureus 2630; assay: Mouse protection assay; format: in vivo; conditions: Staphylococcus aureus, 2630, 1 h

Work on CNC1C(=O)NC2Cc3ccc(cc3)Oc3cc4cc(c3O)Oc3ccc(cc3Cl)C(O)C3NC(=O)C(NC(=O)C4NC(=O)C(NC2=O)c2cc(cc(O)c2Cl)Oc2cc1ccc2O)c1ccc(O)c(c1)-c1c(O[C@H]2O[C@H](CO)[C@@H](O)[C@H](O)[C@@H]2O)cc(O)cc1C(C(=O)O)NC3=O (stereo partly drawn) [AAJ 271 Pseudo-aglycone] yielded an MIC ([1]; Table IX) of 3.1 µg/mL (≈ 2.25 µM), an MIC ([2]; Table IX) of 3.1 µg/mL (≈ 2.25 µM) and an MIC ([3]; Table IX) of 3.1 µg/mL (≈ 2.25 µM). For the same compound, the MIC ([4]; Table IX) was 12.5 µg/mL (≈ 9.09 µM), the MIC ([5]; Table IX) was 6.3 µg/mL (≈ 4.58 µM) and the MIC ([6]; Table IX) was 25 µg/mL (≈ 18.2 µM). The MIC ([7]; Table IX) was 3.1 µg/mL (≈ 2.25 µM), the MIC ([8]; Table IX) was 3.1 µg/mL (≈ 2.25 µM) and the MBC ([9]; Table IX) was 3.1 µg/mL (≈ 2.25 µM). It also gave an MBC ([10]; Table IX) of 3.1 µg/mL (≈ 2.25 µM), an MBC ([11]; Table IX) of 6.3 µg/mL (≈ 4.58 µM) and an MBC ([12]; Table IX) of 12.5 µg/mL (≈ 9.09 µM). The MBC ([13]; Table IX) was 6.3 µg/mL (≈ 4.58 µM), the MBC ([14]; Table IX) was 25 µg/mL (≈ 18.2 µM) and the MBC ([15]; Table IX) was 3.1 µg/mL (≈ 2.25 µM). For the same compound, the MBC ([16]; Table IX) was 3.1 µg/mL (≈ 2.25 µM).
Work on CNC1C(=O)NC2Cc3ccc(cc3)Oc3cc4cc(c3O)Oc3ccc(cc3Cl)C(O)C3NC(=O)C(NC(=O)C4NC(=O)C(NC2=O)c2cc(cc(O)c2Cl)Oc2cc1ccc2O)c1ccc(O)c(c1)-c1c(O)cc(O)cc1C(C(=O)O)NC3=O (stereo not drawn) [Aglycone 1] yielded an MIC [17] of 0.4 µg/mL (≈ 0.33 µM), an MIC ([1]; Table VIII) of 0.4 µg/mL (≈ 0.33 µM) and an MIC ([2]; Table VIII) of 0.8 µg/mL (≈ 0.66 µM). The MIC [18] was 0.4 µg/mL (≈ 0.33 µM), the MIC ([3]; Table VIII) was 0.4 µg/mL (≈ 0.33 µM) and the MIC [19] was 1.6 µg/mL (≈ 1.32 µM). The MIC ([4]; Table VIII) was 0.4 µg/mL (≈ 0.33 µM), the MIC ([5]; Table VIII) was 0.8 µg/mL (≈ 0.66 µM) and the MIC [20] was 0.8 µg/mL (≈ 0.66 µM). It also gave an MIC ([6]; Table VIII) of 3.1 µg/mL (≈ 2.56 µM), an MIC [21] of 0.8 µg/mL (≈ 0.66 µM) and an MIC ([7]; Table VIII) of 1.6 µg/mL (≈ 1.32 µM). It also gave an MIC ([8]; Table VIII) of 1.6 µg/mL (≈ 1.32 µM), an MIC [22] of 0.8 µg/mL (≈ 0.66 µM) and an MIC [23] of 25 µg/mL (≈ 20.6 µM). The MIC [24] was 0.8 µg/mL (≈ 0.66 µM), the MBC ([9]; Table VIII) was 3.1 µg/mL (≈ 2.56 µM) and the MBC ([10]; Table VIII) was 6.3 µg/mL (≈ 5.19 µM). For the same compound, the MBC ([11]; Table VIII) was 1.6 µg/mL (≈ 1.32 µM), the MBC ([12]; Table VIII) was 0.4 µg/mL (≈ 0.33 µM) and the MBC ([13]; Table VIII) was 6.3 µg/mL (≈ 5.19 µM). The MBC ([14]; Table VIII) was 6.3 µg/mL (≈ 5.19 µM), the MBC ([15]; Table VIII) was 100 µg/mL (≈ 82.4 µM) and the MBC ([16]; Table VIII) was 100 µg/mL (≈ 82.4 µM). It also gave an MBC [25] of 25 µg/mL (≈ 20.6 µM), an MBC [26] of 3.1 µg/mL (≈ 2.56 µM) and an MBC [27] of 3.1 µg/mL (≈ 2.56 µM). For the same compound, the MBC [28] was 1.6 µg/mL (≈ 1.32 µM), the MBC [29] was 1.6 µg/mL (≈ 1.32 µM) and the MBC [30] was 0.8 µg/mL (≈ 0.66 µM). For the same compound, the MBC [31] was 1.6 µg/mL (≈ 1.32 µM), the MBC [32] was 0.8 µg/mL (≈ 0.66 µM) and the ED50 [33] was 0.88 mg/kg. It also gave an ED50 [34] of 5 mg/kg and an ED50 [35] of 6.4 mg/kg.
